The NIST ThermoML archive (doi:10.1021/acs.jced.8b00888)
Numbers after ± are expanded uncertainties.

Experiments:
[1] = Molar enthalpy of transition or fusion; conditions: Crystal; DSC
[2] = Crystal; DTA

Compound: Cc1nc(C)c(C)nc1C [tetramethylpyrazine]
- Molar enthalpy of transition or fusion [1]: 3.92 ± 0.406 kcal/mol
- Normal melting temperature [2]: 85.40 ± 1.1 °C
